Tests used:
[1] = Scavenging of sodium hypochlorite followed by 31P NMR; details: 5 mM in water, 6 mM NaOCl, immediately after exposure
Description: ROS reaction with AMTP were recorded by ^31 P NMR spectra. ^31 P spectra were referenced to 1% H3 PO4 in D2 O and used as an external standard.
Compound B (5 mM in water) was introduced into 6 mM sodium hypochlorite.

BSA = assay: BSA's cystine oxidation by NaOCl (DTNB); details: NaOCl 1 mM
Description: BSA (0.5 mg/ml) in Imi HEPES buffer pH=7.2(50 mM) was incubated with sodium hypochlorite (1 mM) for 15 min. The protein was dialyzed for 2 h against 2×500 vol of HEPES buffer to remove free sodium hypochlorite. 301 DTNB 0.015 M in water was then added to the protein solution and color was measured at 420 nm. AMTPs were added to the protein sample to protect it against sodium hypochlorite [Hazell and Stocker, ibid.].
BSA's tryptophan oxidation and BSA's cystine oxidation were the models for protein damage by NaOCl (FIG. 11 and FIG. 12 respectively). BSA fluorescence intensity decreased following oxidative stress of NaOCI (1 mM). […] Out of the three AMTP compounds the most lipophilic (A) was best in preventing the damage and provided 94% protection on the protein.

Sabra mice = assay: Toxicity study, i.p. injection; type: in vivo
Description: (§1) The toxicity of compound B was tested by injecting 75 mg/kg, 150 mg/kg, 300 mg/kg, 500 mg/kg, 700 mg/kg and 1000 mg/kg i.p. to groups of eight Sabra mice. In addition, a repetitive i.p. injection of 75 mg/kg/day over a period of two weeks was conducted on eight mice. The mice were monitored for mortality and for chances in their weight compared to a saline injected control group.
(§2) The toxicity of compound B was tested by injecting 75 mg/kg, 150 mg/kg, 300 mg/kg, 500 mg/kg, 700 mg/kg and 1000 mg/kg i.p. to groups of eight Sabra mice.

[2] = Toxicity study, i.p. injection; type: in vivo, Sabra mice; details: mouse, in vivo, ip, single, Sabra mice
Description: as §1, §2

[3] = Superoxide radical assay (xanthine/xanthine oxidase, cyt C reduction)
Description: Superoxide radicals were produced from reactions of xanthine/xanthine oxidase [Mccord, J. M. and Fridovich I. (1969) J. Biol. Chem. 244:6049-6055]. The enzyme unit was adjusted to produce a linear flux of superoxide radicals which gave a slope of 0.12 OD/min at 550 nm. by reduction of cyt-C.
Superoxide radicals were produced by the xanthine/xanthine oxidase system, and the prevention of cyt C reduction by compound B was measured (FIG. 8). […] The spontaneous second order reaction rate constant of superoxide with compound B was calculated from the initial slope to be 8.1*10^2 M^-1 S^-1.

CCOP(=S)(NCCO)OCC [Compound B, 2-hydroxyamido diethyithionophosphate]
oxidation by sodium hypochlorite [1]: complete oxidation of the sulfur group
protection of BSA's cystines (BSA): strong protection
mortality (Sabra mice; i.p., doses up to 500 mg/kg): No mortality was observed
changes in average weight (Sabra mice; i.p., up to 500 mg/kg, monitoring of 30 days, vs saline control): nor were there any significant changes
mortality or weight differentiation (Sabra mice; repetitive i.p. 75 mg/kg/day, two weeks): did not lead to any mortality or weight differentiation
LD50 at 720 h [2]: ~700 mg/kg
reduction of cyt C by compound itself [3]: did not reduce cyt C
second order reaction rate constant with superoxide ([3]; calculated from the initial slope): 8.1*10^2 M^-1 S^-1

Source: patent US6200962A, “Thionophosphate derivatives, process for their preparation and pharmaceutical compositions containing them” (priority 1994, dated 2001)
